# Experimental data from US20140357512A1, “HISTONE DEACETYLASE (HDAC) BIOMARKERS IN MULTIPLE MYELOMA” (priority 2013, published 2014).
# Tested on: human myeloma cell line MM.1S
# Assay: SILAC acetylated-lysine peptide profiling, HDAC inhibitor vs DMSO (light/heavy ratio)
# Assay type: cell-based
# Source text: An embodiment of the invention comprises utilizing the SILAC method in order to quantitate changes in protein expression between two or more populations of cells. The SILAC method is a technique based on mass spectrometry that detects differences in protein abundance among samples using non-radioactive isotopic labeling. The SILAC method is known in the art, and described in detail in Ong et al., “Stable Isotope Labeling by Amino Acids in Cell Culture, SILAC, as a Simple and Accurate Approach to Expression Proteomics”, Molecular & Cellular Proteomics, vol. 1, pp. 376-386 (2002), which is incorporated herein by reference in its entirety.
# Briefly, the SILAC method involves growing two populations of cells in cell culture. The first population of cells is grown in growth media containing normal amino acids (“normal media”). The second population of cells is grown in media lacking a standard essential amino acid (such as lysine), but is then supplemented with a non-radioactive, isotopically labeled form of that essential amino acid (such as lysine labeled with ^13C atoms, rather than normal ^12C atoms), which is called “heavy media”. When the two populations of cells are each growing in the medium, they incorporate the amino acids into all of their proteins. The growth of cells maintained in the heavy media is no different from that in normal media. All peptides containing the heavy amino acids are heavier than their normal counterparts. The cells from each of the two populations of cells are lysed. The lysates from each of the two cell populations are then combined. The combined cell lysates are then analyzed by mass spectrometry. Pairs of chemically identical peptides of different stable isotope composition can be differentiated in a mass spectrometer due to their difference in mass. The ratio of peak intensities in the mass spectrum for such peptide pairs reflects the abundance ratio for the two proteins.
# This example describes SILAC studies that were performed to compare the effects of three different HDAC inhibitors (Compound A, Compound B, and tubastatin A) to a control on a human multiple myeloma cell line. The HDAC inhibitors were also compared amongst themselves to determine differences in their effects.
# A human myeloma cell line MM.1S was grown using either ^12C (light) or ^13C (heavy) lysine containing culture medium. The “heavy” cells were treated with DMSO as the control, and the “light” cells were treated with a single HDAC inhibitor at 37° C. for 6 hours. The heavy and light cells were lysed, and the lysates were mixed in 1:1 ratio and digested with the protease trypsin. The acetylated lysine containing peptides (due to the action of the HDAC inhibitor) in the digested peptide pool were captured by a non-specific anti-acetylated lysine antibody cocktail (the antibodies identify both light and heavy acetylated peptides), and subjected to mass spectrometry analysis in order to identify thousands of individual peptides.
# Thousands of peptides were identified in pairs (^12C and ^13C) due to their known mass differences. The amino acid sequence and quantitative ratio (Light/Heavy) of a given peptide in two differentially treated cell lysates were then determined and annotated with their possible protein (gene) sources.
# As stated above, three HDAC inhibitors (Compound A, Compound B, and Tubastatin A) were used. Thus, the SILAC method was performed three times, with a different HDAC inhibitor compared to a control each time. Accordingly, there are three pairs of quantitative data in the table below, i.e., Compound A:DMSO, Compound B:DMSO, and Tubastatin A:DMSO. A cut-off of 1.30 fold of change (increase or decrease) was then used to determine “changed” or “+” in the table, and any peptides with a fold of change less than 1.3 fold were determined to be “unchanged” or “0” in the table. Those peptides that were not identified were marked as “NA” in the table. […]
smiles,measurement,setting,value
"O=C(NO)c1cnc(NC2(c3cccc(F)c3)CCCCC2)nc1 [Compound B, 2-((1-(3-fluorophenyl)cyclohexyl)amino)-N-hydroxypyrimidine-5-carboxamide]","light to heavy ratio (L/H ratio) of acetylated peptide, log 2 scale","NK(ac)[…] (SEQ ID NO: 237), Vesicle-associated membrane protein 8 [47], VAMP8",0.00
same,"light to heavy ratio (L/H ratio) of acetylated peptide, log 2 scale","NLDK(ac)[…] (SEQ ID NO: 159), Aspartate aminotransferase mitochondrial [94], GOT2",0.00
same,L/H ratio of acetylated peptide,"NLK(ac)NEITK (SEQ ID NO: 380), Isoform 1 of Coatomer subunit alpha [441], COPA",0.40 log 2
same,L/H ratio of acetylated peptide,"NLPFSVENK(ac)WSLLAK (SEQ ID NO: 382), Cytochrome c oxidase subunit 7C mitochondrial [34], COX7C",−0.87 log 2
same,L/H ratio of acetylated peptide ADKDYHFK(ac)[…] (SEQ ID NO: 61),"NPM1 [32], log 2 scale, drug vs DMSO",0.00
same,L/H ratio of acetylated peptide GVTQFGNK(ac)[…] (SEQ ID NO: 18),"NUDT21 [23], log 2 scale, drug vs DMSO",0.50
same,L/H ratio of acetylated peptide,"NVQQTVSAK(ac)GPPEK(ac)R (SEQ ID NO: 416), Mediator of RNA polymerase II transcription subunit 6 [243:248], MED6",0.49 log 2
same,L/H ratio of acetylated peptide,"NVYK(ac)FELDTSER (SEQ ID NO: 444), Dolichyl-diphosphooligosaccharide--protein glycosyltransferase subunit 2 [460], RPN2",0.54 log 2
same,light to heavy ratio (L/H ratio) of acetylated peptide FCLSK(ac)PGVYK (SEQ ID NO: 345),"Nodal modulator 1 [630], NOMO3, NOMO1, drug:DMSO",0.59 log 2
same,light to heavy ratio (L/H ratio) of acetylated peptide […](ac)R (SEQ ID NO: 532),"Nucleosome assembly protein 1-like 1 [116], gene NAP1L1, inhibitor:DMSO",0.00 log 2
same,L/H ratio of acetylated peptide PSHLTNK(ac)FEDK (SEQ ID NO: 65),"PDIA3 [214], log 2 scale, drug vs DMSO",0.00
same,L/H ratio of acetylated peptide GEK(ac)FVMQEEFSR (SEQ ID NO: 64),"PDIA3 [335], log 2 scale, drug vs DMSO",0.00
same,L/H ratio of acetylated peptide SLLGK(ac)DVLFLK (SEQ ID NO: 67),"PGK1 [91], log 2 scale, drug vs DMSO",0.00
same,L/H ratio of acetylated peptide SIYGEK(ac)FEDENFILK (SEQ ID NO: 68),"PPIA [82], log 2 scale, drug vs DMSO",0.00
same,L/H ratio of acetylated peptide VIFGLFGK(ac)TVPK (SEQ ID NO: 70),"PPIB [67], log 2 scale, drug vs DMSO",0.00
same,L/H ratio of acetylated peptide TVPK(ac)[…] (SEQ ID NO: 69),"PPIB [71], log 2 scale, drug vs DMSO",0.00
same,L/H ratio of acetylated peptide VIK(ac)[…] (SEQ ID NO: 71),"PPIB [98], log 2 scale, drug vs DMSO",0.00
same,L/H ratio of acetylated peptide IYGFYDECK(ac)R (SEQ ID NO: 72),"PPP1CC [141], log 2 scale, drug vs DMSO",0.00
same,light to heavy ratio (L/H ratio) of acetylated peptide TAWLDGK(ac)HVVFGK (SEQ ID NO: 592),"Peptidyl-prolyl cis-trans isomerase B [165], gene PPIB, inhibitor:DMSO",0.00 log 2
same,light to heavy ratio (L/H ratio) of acetylated peptide FPDENFK(ac)LK (SEQ ID NO: 347),"Peptidyl-prolyl cis-trans isomerase C [123], PPIC, drug:DMSO",−1.00 log 2
same,light to heavy ratio (L/H ratio) of acetylated peptide HVVFGK(ac)VK (SEQ ID NO: 576),"Peptidylprolyl isomerase A (Cyclophilin A) (PPIA) pseudogene [141], gene PPIAP26, inhibitor:DMSO",0.00 log 2
same,light to heavy ratio (L/H ratio) of acetylated peptide LAK(ac)YFFNK (SEQ ID NO: 604),"Periodic tryptophan protein 2 homolog [279], gene PWP2, inhibitor:DMSO",0.00 log 2
same,light to heavy ratio (L/H ratio) of acetylated peptide […](ac)DELKK (SEQ ID NO: 346),"Poly [ADP-ribose] polymerase 1 [249], PARP1, drug:DMSO",0.83 log 2
same,light to heavy ratio (L/H ratio) of acetylated peptide FVVEK(ac)AEQQK (SEQ ID NO: 263),"Prohibitin [202], PHB, drug:DMSO",0.00 log 2
same,light to heavy ratio (L/H ratio) of acetylated peptide FEYK(ac)YSFK (SEQ ID NO: 340),"Protein ERGIC-53 [49], LMAN1, drug:DMSO",−0.52 log 2
same,light to heavy ratio (L/H ratio) of acetylated peptide HFAFK(ac)[…] (SEQ ID NO: 554),"Protein FAM3C [72], gene FAM3C, inhibitor:DMSO",0.00 log 2
same,light to heavy ratio (L/H ratio) of acetylated peptide GYPTIK(ac)FFR (SEQ ID NO: 541),"Protein disulfide-isomerase [103], gene P4HB, inhibitor:DMSO",0.00 log 2
same,light to heavy ratio (L/H ratio) of acetylated peptide THILLFLPK(ac)SVSDYDGK (SEQ ID NO: 297),"Protein disulfide-isomerase [263], P4HB, drug:DMSO",0.00 log 2
same,light to heavy ratio (L/H ratio) of acetylated peptide VLVGK(ac)[…] (SEQ ID NO: 303),"Protein disulfide-isomerase [375], P4HB, drug:DMSO",0.00 log 2
same,light to heavy ratio (L/H ratio) of acetylated peptide […](ac)K (SEQ ID NO: 286),"Protein disulfide-isomerase [385], P4HB, drug:DMSO",0.00 log 2
same,"light to heavy ratio (L/H ratio), log 2 scale, acetylated peptide VYK(ac)EMYK (SEQ ID NO: 777)","Putative annexin A2-like protein [148], gene ANXA2P2, drug:DMSO",0.00
same,"light to heavy ratio (L/H ratio), log 2 scale, acetylated peptide SVPHLQK(ac)VFDR (SEQ ID NO: 776)","Putative annexin A2-like protein [227], gene ANXA2P2, drug:DMSO",0.00
